The record followed here is US20220151236A1, “NOVEL OXADIAZOLE COMPOUNDS FOR CONTROLLING OR PREVENTING PHYTOPATHOGENIC FUNGI” (PI INDUSTRIES LTD., priority 2019, published 2022).

This assay concerns Phakopsora pachyrhizi. Put plainly: Phakopsora pachyrhizi Test on Soybean (preventive activity, greenhouse). In kind it is in vivo. Conditions: preventive spray on young Soybean plants, inoculated one day after treatment, rated 3, 7, 10 and 15 days after application, read-out: Efficacy (% control), disease severity compared to the untreated check. The method, then: Compounds were dissolved in 2% dimethyl sulfoxide/acetone and then mixed with water containing an emulsifier to a calibrated spray volume of 50 mL. This 50 mL spray solution was poured into spray bottles for further applications. To test the preventive activity of compounds, healthy young Soybean plants raised in the greenhouse were sprayed with the active compound preparation at the stated application rates inside the spray cabinets using hollow cone nozzles. One day after treatment, the plants were inoculated with a spore suspension containing 2×10^5 Phakopsora pachyrhizi conidia. The inoculated plants were then kept in a greenhouse chamber at 22-24° C. temperature and 80-90% relative humidity for disease expression. A visual assessment of the compound's performance was carried out by rating the disease severity (0-100% scale) on treated plants 3, 7, 10 and 15 days after application. Efficacy (% control) of the compounds was calculated by comparing the disease rating in the treatment with the one of the untreated control. The sprayed plants were also assessed for plant compatibility by recording symptoms like necrosis, chlorosis and stunting.
Turning to `O=S(=O)(Cc1cn2ccc(-c3noc(C(F)(F)F)n3)cc2n1)c1ccc(F)cc1` [Compound 57, 3-(2-(((4-fluorophenyl)sulfonyl)methyl)imidazo[1,2-a]pyridin-7-yl)-5-(trifluoromethyl)-1,2,4-oxadiazole], the pest or weed control at 500 ppm is at least 70%. As for `O=C(NCc1cccc(F)c1)c1cn2cc(-c3noc(C(F)(F)F)n3)ccc2n1` [Compound 31, N-(3-fluorobenzyl)-6-(5-(trifluoromethyl)-1,2,4-oxadiazol-3-yl)imidazo[1,2-a]pyridine-2-carboxamide], the figure is at least 70%. As for `CC(C)(C)CNC(=O)c1cn2ccc(-c3noc(C(F)(F)F)n3)cc2n1` [Compound 36, N-neopentyl-7-(5-(trifluoromethyl)-1,2,4-oxadiazol-3-yl)imidazo[1,2-a]pyridine-2-carboxamide], the figure is at least 70%. The result for `FC(F)(F)c1nc(-c2ccn3cc(CSc4ccc(Cl)cc4)nc3c2)no1` [Compound 47, 3-(2-(((4-chlorophenyl)thio)methyl)imidazo[1,2-a]pyridin-7-yl)-5-(trifluoromethyl)-1,2,4-oxadiazole] reads at least 70%; that for `O=C(Nc1ccc(F)cc1F)c1cn2ccc(-c3noc(C(F)(F)F)n3)cc2n1` [Compound 5, N-(2,4-difluorophenyl)-7-(5-(trifluoromethyl)-1,2,4-oxadiazol-3-yl)imidazo[1,2-a]pyridine-2-carboxamide], at least 70%.

Consider `CC(C)CNC(=O)c1cn2cc(-c3noc(C(F)(F)F)n3)ccc2n1` [Compound 66, N-isobutyl-6-(5-(trifluoromethyl)-1,2,4-oxadiazol-3-yl)imidazo[1,2-a]pyridine-2-carboxamide], for which the pest or weed control at 500 ppm was at least 70%.

As to `O=S(=O)(Cc1cn2ccc(-c3noc(C(F)(F)F)n3)cc2n1)c1ccccc1F` [Compound 59, 3-(2-(((2-fluorophenyl)sulfonyl)methyl)imidazo[1,2-a]pyridin-7-yl)-5-(trifluoromethyl)-1,2,4-oxadiazole], the pest or weed control at 500 ppm is at least 70%.

Turning to `Fc1ccc(SCc2cn3ccc(-c4noc(C(F)(F)F)n4)cc3n2)cc1` [Compound 48, 3-(2-(((4-fluorophenyl)thio)methyl)imidazo[1,2-a]pyridin-7-yl)-5-(trifluoromethyl)-1,2,4-oxadiazole], the pest or weed control at 500 ppm was at least 70%. Consider `N#Cc1ccc(NC(=O)c2cn3ccc(-c4noc(C(F)(F)F)n4)cc3n2)cc1` [Compound 15, N-(4-cyanophenyl)-7-(5-(trifluoromethyl)-1,2,4-oxadiazol-3-yl)imidazo[1,2-a]pyridine-2-carboxamide], for which the pest or weed control at 500 ppm is at least 70%. As for `O=C(Nc1cccc(F)c1)c1cn2ccc(-c3noc(C(F)(F)F)n3)cc2n1` [Compound 4, N-(3-fluorophenyl)-7-(5-(trifluoromethyl)-1,2,4-oxadiazol-3-yl)imidazo[1,2-a]pyridine-2-carboxamide], the pest or weed control at 500 ppm was at least 70%.

As to `O=C(NCC1CC1)c1cn2cc(-c3noc(C(F)(F)F)n3)ccc2n1` [Compound 70, N-(cyclopropylmethyl)-6-(5-(trifluoromethyl)-1,2,4-oxadiazol-3-yl)imidazo[1,2-a]pyridine-2-carboxamide], the pest or weed control at 500 ppm is at least 70%.

On to `O=C(NCc1cn2cc(-c3noc(C(F)(F)F)n3)ccc2n1)c1ccc(F)cc1` [Compound 90, 4-fluoro-N-((6-(5-(trifluoromethyl)-1,2,4-oxadiazol-3-yl)imidazo[1,2-a]pyridin-2-yl)methyl)benzamide], for which the pest or weed control at 500 ppm was at least 70%. The result for `CS(=O)(=NC(=O)Cc1cn2cc(-c3noc(C(F)(F)F)n3)ccc2n1)c1ccccc1` (centres unmarked) [Compound 129, N-(methyl(oxo)(phenyl)-λ^6-sulfanylidene)-2-(6-(5-(trifluoromethyl)-1,2,4-oxadiazol-3-yl)imidazo[1,2-a]pyridin-2-yl)acetamide] reads at least 70%; that for `O=C(NCc1ccccc1)c1cn2cc(-c3noc(C(F)(F)F)n3)ccc2n1` [Compound 23, N-benzyl-6-(5-(trifluoromethyl)-1,2,4-oxadiazol-3-yl)imidazo[1,2-a]pyridine-2-carboxamide], at least 70%.

On to `O=C(NCc1ccc(Cl)cc1)c1cn2ccc(-c3noc(C(F)(F)F)n3)cc2n1` [Compound 38, N-(4-chlorobenzyl)-7-(5-(trifluoromethyl)-1,2,4-oxadiazol-3-yl)imidazo[1,2-a]pyridine-2-carboxamide], for which the pest or weed control at 500 ppm was at least 70%. The result for `O=C(NCc1cn2cc(-c3noc(C(F)(F)F)n3)ccc2n1)c1ccc(Cl)cc1` [Compound 83, 4-chloro-N-((6-(5-(trifluoromethyl)-1,2,4-oxadiazol-3-yl)imidazo[1,2-a]pyridin-2-yl)methyl)benzamide] reads at least 70%. As for `O=C(NCc1cn2cc(-c3noc(C(F)(F)F)n3)ccc2n1)c1cccc(F)c1` [Compound 93, 3-fluoro-N-((6-(5-(trifluoromethyl)-1,2,4-oxadiazol-3-yl)imidazo[1,2-a]pyridin-2-yl)methyl)benzamide], the figure is at least 70%; as for `O=C(Nc1ccccc1F)c1cn2ccc(-c3noc(C(F)(F)F)n3)cc2n1` [Compound 7, N-(2-fluorophenyl)-7-(5-(trifluoromethyl)-1,2,4-oxadiazol-3-yl)imidazo[1,2-a]pyridine-2-carboxamide], at least 70%; as for `O=C(Nc1c(F)cccc1F)c1cn2cc(-c3noc(C(F)(F)F)n3)ccc2n1` [Compound 30, N-(2,6-difluorophenyl)-6-(5-(trifluoromethyl)-1,2,4-oxadiazol-3-yl)imidazo[1,2-a]pyridine-2-carboxamide], at least 70%. The result for `Fc1ccccc1SCc1cn2cc(-c3noc(C(F)(F)F)n3)ccc2n1` [Compound 106, 3-(2-(((2-fluorophenyl)thio)methyl)imidazo[1,2-a]pyridin-6-yl)-5-(trifluoromethyl)-1,2,4-oxadiazole] reads at least 70%. As to `CC(NC(=O)c1cn2cc(-c3noc(C(F)(F)F)n3)ccc2n1)c1ccccc1` (centres unmarked) [Compound 72, N-(1-phenylethyl)-6-(5-(trifluoromethyl)-1,2,4-oxadiazol-3-yl)imidazo[1,2-a]pyridine-2-carboxamide], the pest or weed control at 500 ppm was at least 70%. The result for `O=C(NCc1ccc(Cl)c(Cl)c1)c1cn2ccc(-c3noc(C(F)(F)F)n3)cc2n1` [Compound 44, N-(3,4-dichlorobenzyl)-7-(5-(trifluoromethyl)-1,2,4-oxadiazol-3-yl)imidazo[1,2-a]pyridine-2-carboxamide] reads at least 70%; that for `CN(Cc1ccccc1)C(=O)c1cn2cc(-c3noc(C(F)(F)F)n3)ccc2n1` [Compound 71, N-benzyl-N-methyl-6-(5-(trifluoromethyl)-1,2,4-oxadiazol-3-yl)imidazo[1,2-a]pyridine-2-carboxamide], at least 70%; that for `CS(=O)(=NC(=O)Cc1cn2cc(-c3noc(C(F)(F)F)n3)ccc2n1)c1ccccc1F` (centres unmarked) [Compound 130, N-((2-fluorophenyl)(methyl)(oxo)-λ^6-sulfaneylidene)-2-(6-(5-(trifluoromethyl)-1,2,4-oxadiazol-3-yl)imidazo[1,2-a]pyridin-2-yl)acetamide], at least 70%.

For `CNC(=O)c1cn2ccc(-c3noc(C(F)(F)F)n3)cc2n1` [Compound 13, N-methyl-7-(5-(trifluoromethyl)-1,2,4-oxadiazol-3-yl)imidazo[1,2-a]pyridine-2-carboxamide], the pest or weed control at 500 ppm was at least 70%. As for `CCOC(=O)c1cn2cc(-c3noc(C(F)(F)F)n3)ccc2n1` [Compound 79, ethyl 6-(5-(trifluoromethyl)-1,2,4-oxadiazol-3-yl)imidazo[1,2-a]pyridine-2-carboxylate], the figure is at least 70%.

In the case of `[O-][S+](Cc1cn2cc(-c3noc(C(F)(F)F)n3)ccc2n1)c1cccc(Cl)c1` (centres unmarked) [Compound 127, 3-(2-(((3-chlorophenyl)sulfinyl)methyl)imidazo[1,2-a]pyridin-6-yl)-5-(trifluoromethyl)-1,2,4-oxadiazole], the pest or weed control at 500 ppm is at least 70%. As for `O=C(NCc1cccc(Cl)c1)c1cn2cc(-c3noc(C(F)(F)F)n3)ccc2n1` [Compound 75, N-(3-chlorobenzyl)-6-(5-(trifluoromethyl)-1,2,4-oxadiazol-3-yl)imidazo[1,2-a]pyridine-2-carboxamide], the figure is at least 70%; as for `O=C(NCc1ccc(C(F)(F)F)cc1)c1cn2ccc(-c3noc(C(F)(F)F)n3)cc2n1` [Compound 8, 7-(5-(trifluoromethyl)-1,2,4-oxadiazol-3-yl)-N-(4-(trifluoromethyl)benzyl)imidazo[1,2-a]pyridine-2-carboxamide], at least 70%.

For the molecule `O=C(NCc1ccc(C(F)(F)F)cc1)c1cn2cc(-c3noc(C(F)(F)F)n3)ccc2n1` [Compound 63, 6-(5-(trifluoromethyl)-1,2,4-oxadiazol-3-yl)-N-(4-(trifluoromethyl)benzyl)imidazo[1,2-a]pyridine-2-carboxamide], the pest or weed control at 500 ppm was at least 70%. As for `CCC(=O)NCc1cn2cc(-c3noc(C(F)(F)F)n3)ccc2n1` [Compound 88, N-((6-(5-(trifluoromethyl)-1,2,4-oxadiazol-3-yl)imidazo[1,2-a]pyridin-2-yl)methyl)propionamide], the figure is at least 70%; as for `O=C(Nc1ccc(F)cc1F)c1cn2cc(-c3noc(C(F)(F)F)n3)ccc2n1` [Compound 17, N-(2,4-difluorophenyl)-6-(5-(trifluoromethyl)-1,2,4-oxadiazol-3-yl)imidazo[1,2-a]pyridine-2-carboxamide], at least 70%.
